One molecule from patent US10842892B2, “Methods and apparatus for synthesizing imaging agents, and intermediates thereof” (Lantheus Medical Imaging, Inc., priority 2010, dated 2020) can be followed below.

The test system of data set [1] is chronic myocardial infarct (MI). Description: cardiac PET imaging in control and chronic myocardial infarct rabbits. It is filed as in vivo. The settings on record: MI rabbit, images 20-30 min after injection. From the text:
Male New Zealand rabbits (body weight 2.5-3.5 kg) were purchased from Harlan (Oakwood, Mich.) and maintained in the AAALAC-accredited Animal Care Facility at Lantheus Medical Imaging. The study protocol was approved by the Institutional Animal Care and Use Committee. The procedure of developing a rabbit model of myocardial infarction (MI) was similar to the method described previously (Fujita M, Morimoto Y, Ishihara M, Shimizu M, Takase B, Maehara T et al. A new rabbit model of myocardial infarction without endotracheal intubation. J Surg Res 2004; 116:124-8). Briefly, the rabbit was anesthetized with ketamine (40 mg/Kg, im) and xylazine (9 mg/Kg, im) and placed in a supine position. The surgery was performed under aseptic conditions. A mid-sternotomy was performed carefully to avoid injury of parietal pleura. The pericardial sac was exposed and incised. […]
PET images and cardiovascular parameters were evaluated in both normal and MI rabbits. […] In addition, electrocardiogram (ECG) was also recorded with 3 non-invasive limb leads in lead II configuration using the BIOPAC system. […] After a stabilization period, cardiovascular parameters: MAP, SBP, DBP and ECG, were recorded 5 minutes before imaging agent 1 intravenous injection (˜1.5 mCi) and the recording continued for additional 20 minutes post-injection. […]

In data set [2] the test system is blood brain barrier (BBB). Briefly: brain uptake with and without blood brain barrier disruption. It is filed as in vivo, rat. Particulars: rat. How it is done:
Male Sprague-Dawley rats were anesthetized with sodium pentobarbital and the left external carotid artery was cannulated close to the internal and external carotid bifurcation. Using saline as control and 25% D-mannitol as hypertonic solution, each were perfused retrogradely in six animals (0.3 mL/kg/sec) for 30 seconds. Two minutes later, ˜1 mCi imaging agent 1 was injected via tail vein and the brain was imaged with a microPET camera for 30 minutes. […] Following completion of imaging, the brain was harvested, photographed and dissected into left and right hemispheres and cerebellum. The tissue content of imaging agent 1 radioactivity was measured by gamma counter and Evans blue levels were determined by fluorescence method for calculation of the % injected dose/gram tissue and μg Evan blue/gram tissue, respectively.

SMILES strings stand for the structures.

For `CC(C)(C)n1ncc(OCc2ccc(COCC[18F])cc2)c(Cl)c1=O` [imaging agent 1, 2-t-butyl-4-chloro-5-[4-(2-(^18F)fluoroethoxymethyl)-benzyloxy]-2H-pyridazin-3-1], in data set [1], the “perfusion defect area in the left ventricular wall” value is given as “clearly detected”. The BBB permeability entry in data set [2] is “high BBB permeability”.
